From ChEMBL document CHEMBL1159003, “Chemical investigation and anti-inflammatory activity of Vitex negundo seeds” (1992)

Each compound was assayed on Rattus norvegicus (assay: Antiinflammatory activity in Sprague-Dawley rat assessed as inhibition of carrageenan-induced paw edema at 50 mg/kg, po after 3.5 hrs).
Format: functional

Row | SMILES | inhibition in vivo at 50 mg/kg [%]
1 | CC1(C)CC[C@]2(C(=O)O)CC[C@]3(C)C(=CC[C@@H]4[C@@]5(C)C[C@H](O)[C@@H](O)C(C)(C)C5=CC[C@]43C)[C@@H]2C1 | 34.3
2 | CC1(C)CC[C@]2(C(=O)O)CC[C@]3(C)C(=CC[C@@H]4[C@@]5(C)C[C@@H](O)[C@@H](O)C(C)(C)C5=CC[C@]43C)[C@@H]2C1 | 18.7
3 | CC(C)Cc1ccc(C(C)C(=O)O)cc1 (stereo not drawn) [IBUPROFEN] | 63.2
